# Read-outs that look alike come from different tables or passages of the source.
# Legend:
# [1] = Microsome stability assay, human liver microsomes; format: in vitro ADME; conditions: 1 μM compound, 0.5 mg/mL microsomal protein; for microsomal CLint at 1 h, 1 µM / half-life at 1 h, 1 µM / microsomal CLint at 1 μM / half-life at 1 μM: human, human liver microsomes, pooled, NADPH, 37° C.; for microsomal CLint at 1 h, 1 µM / microsomal CLint at 1 μM: read-out: Microsome Stability Human liver microsomes Cl; for half-life at 1 h, 1 µM / half-life at 1 μM: read-out: Microsome Stability Human liver microsomes T½
# How it was run: (§1)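 Compound at 1 μM incubated at 37° C with pooled human or mouse liver microsomes (0.5 mg/mL protein) plus NADPH regenerating system, sampled at 0–60 min; a 60-min no-NADPH incubation also included. Single replicate; LC/MS/MS disappearance from analyte/internal standard peak area ratios, without standard curve.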
# HSD17B13 = HSD17B13 (Homo sapiens (Human), UniProt Q7Z5P4); assay: HSD17B13 enzymatic inhibition assay (150 nM or 50 nM HSD17B13); format: biochemical
# HSD17B2 = HSD17B2 (Homo sapiens (Human), UniProt P37059); assay: HSD17B2 enzymatic blocking assay; format: biochemical; conditions: 1.8 μM Estradiol, 650 μM NAD; read-out: Inhibition of HSD17B2 IC50
# How it was run: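 Mammalian-expressed enzyme at 2 ng/μL in 50 mM Tris-HCl pH 7.5 with detergents/BSA, preincubated 15 min at 20° C. with compound (10-point titration). Reaction with 1.8 μM estradiol and 650 μM NAD ran 45 min at 20° C.; NADH measured by NADH-Glo luminescence and IC50 derived.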
# HSD17B1 = HSD17B1 (Homo sapiens (Human), UniProt P14061); assay: HSD17B1 enzymatic blocking assay; format: biochemical; conditions: 25 μM Estradiol, 500 μM NAD; read-out: Inhibition of HSD17B1 IC50
# How it was run: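 Activity followed as NADH formed on estradiol oxidation, read by NADH-Glo luminescence after 1 h detection in the dark at room temperature. Compounds preincubated with enzyme 30 min at room temperature; 0.5% DMSO and no-substrate controls. IC50 fitted from luminescence.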
# [2] = Microsome stability assay, mouse liver microsomes; format: in vitro ADME; conditions: 1 μM compound, 0.5 mg/mL microsomal protein; for microsomal CLint at 1 h, 1 µM / half-life at 1 h, 1 µM / microsomal CLint at 1 μM / half-life at 1 μM: mouse, mouse liver microsomes, pooled, NADPH, 37° C.; for microsomal CLint at 1 h, 1 µM / microsomal CLint at 1 μM: read-out: Microsome Stability Mouse liver microsomes Cl; for half-life at 1 h, 1 µM / half-life at 1 μM: read-out: Microsome Stability Mouse liver microsomes T½
# How it was run: as §1
# [3] = 50 nM HSD17B13, read-out: Inhibition of 50 nM of HSD17B13 IC50
# HSD17B1, sequence (P14061 other isoform, or with tags, fused parts or gaps): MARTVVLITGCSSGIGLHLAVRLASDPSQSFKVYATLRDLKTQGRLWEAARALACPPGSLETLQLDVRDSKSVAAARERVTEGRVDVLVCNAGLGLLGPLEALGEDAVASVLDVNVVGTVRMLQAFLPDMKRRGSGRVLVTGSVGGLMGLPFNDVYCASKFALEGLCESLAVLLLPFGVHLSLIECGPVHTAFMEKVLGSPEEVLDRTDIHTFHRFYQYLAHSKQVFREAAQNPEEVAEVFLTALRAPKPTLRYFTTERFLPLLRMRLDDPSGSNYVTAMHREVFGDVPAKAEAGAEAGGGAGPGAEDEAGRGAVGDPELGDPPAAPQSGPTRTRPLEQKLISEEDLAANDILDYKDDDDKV
# HSD17B2, sequence (P37059 other isoform, or with tags, fused parts or gaps): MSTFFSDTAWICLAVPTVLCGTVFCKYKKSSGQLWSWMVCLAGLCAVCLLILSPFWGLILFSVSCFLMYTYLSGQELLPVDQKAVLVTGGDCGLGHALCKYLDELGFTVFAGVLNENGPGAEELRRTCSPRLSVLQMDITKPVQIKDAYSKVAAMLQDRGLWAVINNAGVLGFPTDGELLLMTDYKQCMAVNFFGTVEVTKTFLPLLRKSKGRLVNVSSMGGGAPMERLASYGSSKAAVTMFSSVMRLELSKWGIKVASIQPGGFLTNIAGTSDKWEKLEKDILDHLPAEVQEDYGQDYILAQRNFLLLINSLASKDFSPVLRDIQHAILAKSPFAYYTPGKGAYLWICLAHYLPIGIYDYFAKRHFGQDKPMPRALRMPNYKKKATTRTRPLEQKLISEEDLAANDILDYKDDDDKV
# HSD17B13, sequence (Q7Z5P4 other isoform, or with tags, fused parts or gaps): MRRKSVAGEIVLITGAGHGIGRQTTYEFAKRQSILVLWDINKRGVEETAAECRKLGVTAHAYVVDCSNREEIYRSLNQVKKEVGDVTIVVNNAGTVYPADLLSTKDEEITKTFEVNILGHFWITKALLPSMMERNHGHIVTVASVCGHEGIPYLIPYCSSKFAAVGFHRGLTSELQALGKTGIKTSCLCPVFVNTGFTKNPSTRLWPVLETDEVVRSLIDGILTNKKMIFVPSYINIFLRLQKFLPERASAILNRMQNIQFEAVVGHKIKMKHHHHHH
SMILES,Microsome Stability Human liver microsomes % Remaining @60 min [1] [%],"microsomal CLint at 1 h, 1 µM [1] [µL/min/mg]","half-life at 1 h, 1 µM [1] [min]",IC50 (HSD17B13; [3]) [µM],IC50 (HSD17B2) [µM],IC50 (HSD17B1) [µM],"IC50 (HSD17B13; 150 nM HSD17B13, read-out: Inhibition of 150 nM of HSD17B13 IC50) [µM]",Microsome Stability Mouse liver microsomes % Remaining @60 min [2] [%],"microsomal CLint at 1 h, 1 µM [2] [µL/min/mg]","half-life at 1 h, 1 µM [2] [min]",microsomal CLint at 1 μM [2] [µL/min/mg],half-life at 1 μM [2] [min],microsomal CLint at 1 μM [1] [µL/min/mg],half-life at 1 μM [1] [min]
"O=C(NC(c1ccccc1)c1ccc(-c2ccccc2)cc1)c1ccc(C(F)(F)F)[nH]c1=O (stereo not drawn) [Compound 2, N-([1,1′-biphenyl]-4-yl(phenyl)methyl)-2-oxo-6-(trifluoromethyl)-1,2-dihydropyridine-3-carboxamide]",3.40,110,12.6,0.74,8.02,> 30,,,,,,,,
"Cc1ccc(C(NC(=O)c2ccc(C(F)(F)F)[nH]c2=O)c2ccccc2)cc1 (stereo not drawn) [Compound 27, N-(phenyl(p-tolyl)methyl)-2-oxo-6-(trifluoromethyl)-1,2-dihydropyridine-3-carboxamide]",0.40,511,2.71,1.06,16.8,> 30,0.47,,,,,,,
"CCC1Cc2cc(C)ccc2C(NC(=O)c2ccc(C(F)(F)F)[nH]c2=O)C1 (stereo not drawn) [Compound 388, N-(3-ethyl-6-methyl-1,2,3,4-tetrahydronaphthalen-1-yl)-2-oxo-6-(trifluoromethyl)-1,2-dihydropyridine-3-carboxamide]",10,150,9.26,0.05,25.8,> 30,,24.60,47.4,29.2,,,,
"CCCC1Cc2cc(C)ccc2C(NC(=O)c2ccc(C(F)(F)F)[nH]c2=O)C1 (stereo not drawn) [Compound 387, N-(6-methyl-3-propyl-1,2,3,4-tetrahydronaphthalen-1-yl)-2-oxo-6-(trifluoromethyl)-1,2-dihydropyridine-3-carboxamide]",2.70,112,12.3,0.05,27.7,> 30,,21.60,52,26.6,,,,
"CCC1Cc2cc(C)ccc2C1NC(=O)c1ccc(C(F)(F)F)[nH]c1=O (stereo not drawn) [Compound 298, N-(2-ethyl-5-methyl-2,3-dihydro-1H-inden-1-yl)-2-oxo-6-(trifluoromethyl)-1,2-dihydropyridine-3-carboxamide]",1,450,3.08,0.06,30.9,> 30,,26.50,45.1,30.7,,,,
"Cc1cccc(C(NC(=O)c2ccc(C(F)(F)F)[nH]c2=O)c2ccccc2)c1 (stereo not drawn) [Compound 490, 2-oxo-N-(phenyl(m-tolyl)methyl)-6-(trifluoromethyl)-1,2-dihydropyridine-3-carboxamide]",1,203,6.83,0.59,16.1,> 30,,1.60,140,9.87,,,,
"Cc1ccc2c(c1)Oc1cc(C)ccc1C2NC(=O)c1cc(OC2CCOCC2)c(C(F)(F)F)[nH]c1=O [Compound 260, N-(3,6-dimethyl-9H-xanthen-9-yl)-2-oxo-5-((tetrahydro-2H-pyran-4-yl)oxy)-6-(trifluoromethyl)-1,2-dihydropyridine-3-carboxamide]",24.50,46.9,29.5,0.02,32.1,11.1,,81.70,,,< 9.6,> 145,,
"Nc1cccc2c1CCCC2NC(=O)c1ccc(C(F)(F)F)[nH]c1=O (stereo not drawn) [Compound 533, N-(5-amino-1,2,3,4-tetrahydronaphthalen-1-yl)-2-oxo-6-(trifluoromethyl)-1,2-dihydropyridine-3-carboxamide]",88.90,,,0.68,72.7,> 30,,90.20,,,< 9.6,> 145,< 9.6,> 145
"COc1ccc2c(c1)Sc1cc(OC)ccc1C2NC(=O)c1ccc(C(F)(F)F)[nH]c1=O [Compound 241, N-(3,6-dimethoxy-9H-thioxanthen-9-yl)-2-oxo-6-(trifluoromethyl)-1,2-dihydropyridine-3-carboxamide]",78,,,0.03,> 100,15.8,,64,13.4,103,,,< 9.6,> 145
"Cc1ccccc1C(NC(=O)c1ccc(C(F)(F)F)[nH]c1=O)c1ccccc1 (stereo not drawn) [Compound 5, N-(phenyl(o-tolyl)methyl)-2-oxo-6-(trifluoromethyl)-1,2-dihydropyridine-3-carboxamide]",16.00,52,26.6,0.85,15.3,> 30,,,,,,,,
"O=C(NC(c1ccccc1)c1ccccc1Cl)c1ccc(C(F)(F)F)[nH]c1=O (stereo not drawn) [Compound 9, N-((2-chlorophenyl)(phenyl)methyl)-2-oxo-6-(trifluoromethyl)-1,2-dihydropyridine-3-carboxamide]",82.00,,,,8.48,> 30,,16.80,59.6,23.3,,,< 9.6,> 145
"O=C(NC1c2ccccc2-c2ccccc21)c1ccc(C(F)(F)F)[nH]c1=O [Compound 25, N-(9H-fluoren-9-yl)-2-oxo-6-(trifluoromethyl)-1,2-dihydropyridine-3-carboxamide]",1.00,265,5.22,0.53,18.2,> 30,,,,,,,,
"O=C(NC(c1ccccc1)c1ccc(Cl)cc1)c1ccc(C(F)(F)F)[nH]c1=O (stereo not drawn) [Compound 21, N-((4-chlorophenyl)(phenyl)methyl)-2-oxo-6-(trifluoromethyl)-1,2-dihydropyridine-3-carboxamide]",73.00,10.8,128,0.75,12,> 30,,,,,,,,
"Cc1ccc2c(c1)Oc1cc(C)ccc1C2NC(=O)c1cc(-c2ccccn2)c(C(F)(F)F)[nH]c1=O [Compound 510, N-(3,6-dimethyl-9H-xanthen-9-yl)-6′-oxo-2′-(trifluoromethyl)-1′,6′ dihydro-[2,3′-bipyridine]-5′-carboxamide]",,,,0.02,5.53,2.19,,,,,,,,

# Reference: patent publication US11957687B2 (REGENERON PHARMACEUTICALS, INC., priority 2019, dated 2024)
